For this assay, the target named is C-C chemokine receptor type 2 (Homo sapiens, UniProt P41597). The assay is described as follows: Binding Assay: MCP-1 Receptor Binding Assay in THP-1 Cells Human monocytic cell line THP-1 cells were obtained from American Type Culture Collection (Manassas, Va., USA). The THP-1 cells were grown in RPMI-1640 (RPMI: Roswell Park Memorial Institute Medium-cell culture growth media) supplemented with 10% fetal bovine serum in a humidified 5% CO2 atmosphere at 37 C. The cell density was maintained between 0.5x10^6 cells/mL.THP-1 (cells were incubated with 0.5 nM 125I labeled MCP-1 (Perkin-Elmer Life Sciences, Inc. Boston, Mass.) in the presence of varying concentrations of either unlabeled MCP-1 (R & D Systems, Minneapolis, Minn.) or test compound for 2 hours at 30 C. in a 96 well plate. Cells were then harvested onto a filter plate, dried, and 20 uL of Microscint 20 was added to each well. Plates were counted in a TopCount NXT, Microplate Scintillation & Luminescence Counter (Perkin-Elmer Life Sciences, Inc. Boston, Mass.). The assay is classed as cell-based.
C-C chemokine receptor type 2, sequence (P41597 whole entry): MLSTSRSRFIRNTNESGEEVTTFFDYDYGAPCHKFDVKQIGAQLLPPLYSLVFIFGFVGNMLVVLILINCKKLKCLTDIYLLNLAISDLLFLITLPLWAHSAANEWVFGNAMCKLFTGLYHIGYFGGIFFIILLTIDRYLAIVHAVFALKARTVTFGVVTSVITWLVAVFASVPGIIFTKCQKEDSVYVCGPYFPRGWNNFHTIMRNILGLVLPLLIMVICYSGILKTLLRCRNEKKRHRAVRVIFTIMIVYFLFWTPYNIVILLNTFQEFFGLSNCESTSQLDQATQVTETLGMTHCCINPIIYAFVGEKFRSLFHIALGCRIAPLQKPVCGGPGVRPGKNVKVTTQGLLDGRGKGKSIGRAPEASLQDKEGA

SMILES strings stand for the structures.

Turning to `CC1(C)Cc2cc(/C=C/C(=O)N3CCC(C(NC4CCC(c5c[nH]c6ccccc56)CC4)C(N)=O)CC3)ccc2O1` (stereo unspecified), the IC50 is 1100 nM.

The IC50 is the concentration that gives 50% inhibition.

Source of the values: ChEMBL document CHEMBL3638678, “4-substituted-cyclohexylamino-4-piperidinyl-acetamide antagonists of CCR2” (2014).
